Experimental data: patent US12090225B2 (Avalyn Pharma Inc., priority 2018, dated 2024)

Key:
[1] = Formulation screening: compatibility of nintedanib esylate with pirfenidone and osmolality adjusting agents (visual appearance); assay type: physicochemical
Experimental: Formulation screening of stand alone nintedanib esylate and in combination with pirfenidone were conducted. Commonly used ionic osmolality adjusting agents include sodium chloride, sodium citrate, magnesium chloride were evaluated as excipients. In addition, mannitol and propylene glycol, which are […] osmolality adjusting agents, were also tested.
The resulting solutions, if not immediately precipitated, were filled into clear Type I glass vials and sealed with a Teflon lined rubber stopper and aluminum crimp cap. The test solutions were stored at ambient room condition in the dark. Visual appearance was periodically assessed within 24 hours and periodically thereafter. Table 31 summarizes the initial formulation screening results.

[2] = Tier 1: nintedanib esylate-excipient compatibility study; assay type: physicochemical
Experimental: Test solution 101-01-16-00 was filtered through a 0.22 micron PVDF filter, all other formulations were not filtered. The test solutions were filled into 10 mL clear Type I glass vials and sealed with Teflon-lined rubber stopper and aluminum crimp cap.

[3] = Tier 3: compatibility in 30 mM NaCl with a second excipient; assay type: physicochemical
Experimental: Compatibility of nintedanib esylate and nintedanib esylate plus pirfenidone control with sodium chloride and a second excipient was assessed. […] The test solutions were filled into 10 mL clear Type I glass vials with Teflon lined rubber stopper and aluminum crimp caps and stored at ambient room condition away from light.

[4] = Compatibility of nintedanib esylate with container system and membrane filter (nylon filter, LDPE vials); assay type: physicochemical
Source text: Compatibility of Nintedanib Esylate with Container System and Type of Membrane Filter: The objective of this study is to determine the suitability of low density polyethylene (LDPE) vials and nylon filters for use with nintedanib esylate standalone and nintedanib esylate plus pirfenidone combination formulations. The test samples were stored at ambient room condition and periodically check for precipitation or crystallization.

[5] = Plasma and lung pharmacokinetics of nintedanib esylate, oral vs intratracheal aerosol; assay type: in vivo, C57BL/6 mice; conditions: for adverse effect (dyspnea): mice; for Cmax / half-life / AUC(0-t): female, C57BL/6, mouse; for half-life: read-out: Elimination half-life (alpha-phase)
[6] = Inhaled pharmacokinetics of fixed combination nintedanib esylate and pirfenidone; assay type: in vivo, C57BL/6 mice; conditions: 10.0 mg/kg each IT; for half-life: read-out: Elimination half-life (alpha-phase)
Experimental: Plasma and lung tissue samples were taken 2, 5, 10, 20, 40 min and 1, 2, and 4 hours post dose. Nintedanib was extracted and quantitated as μg/mL plasma and μg/gram lung tissue.

[7] = Inhaled pharmacokinetics of nintedanib salt forms (intratracheal); assay type: in vivo, C57BL/6 mice; conditions: for half-life: C57BL/6, mouse, 1 mg/kg, read-out: Elimination half-life (alpha-phase); for Cmax: read-out: Cmax
[8] = Therapeutic bleomycin model: dose levels and lung pharmacokinetic comparison; assay type: in vivo, Sprague Dawley rats; conditions: Oral Gavage (PO) 60.0 mg/kg; rat
[9] = test system: bleomycin pulmonary fibrosis; test: Therapeutic bleomycin pulmonary fibrosis model: Ashcroft fibrosis score, hydroxyproline; assay type: in vivo, Sprague Dawley rats; conditions: Oral Gavage (PO) 60 mg/kg BID; bleomycin rats
Experimental: Briefly, acclimated Sprague Dawley male rats (c.a. 253 grams at first dosing) were administered bleomycin on days 1, 2, 3 and 6 by the oropharyngeal (OP) route. On the eighth day, treatment was initiated with either saline or nintedanib. […] Ten animals were enrolled into each dosing group. […] All animals were euthanized on day 28d. Body weights were collected throughout the study, with lung weights at termination (Table 55). Left lungs were extracted and measured for hydroxyproline content, while […] were subjected to histology for Ashcroft fibrosis score determination (Table 56).

[10] = Therapeutic bleomycin model: body weight gain, lung weight-to-body weight ratio, tolerability; conditions: Oral Gavage (PO), dose group printed 0 mg/kg, BID; bleomycin rats
[11] = 100.0 mg/kg PO, Lung (whole lung homogenate)
[12] = inhaled or intranasal, 2.5 mg/kg IT, Lung (whole lung homogenate)
[13] = inhaled or intranasal, 2.5 mg/kg IT, Plasma
[14] = inhaled or intranasal, 10.0 mg/kg IT, Lung (whole lung homogenate)
[15] = inhaled or intranasal, 10.0 mg/kg IT, Plasma
[16] = female, C57BL/6, mouse, inhaled or intranasal, Lung (whole lung homogenate)
[17] = female, C57BL/6, mouse, inhaled or intranasal, Plasma
[18] = 1 mg/kg (base equivalent) IT, mice

With COC(=O)c1ccc2c(c1)NC(=O)/C2=C(\Nc1ccc(N(C)C(=O)CN2CCN(C)CC2)cc1)c1ccccc1 [Nintedanib esylate] the “compatibility with sodium citrate” value ([1]; aqueous solution) was “incompatible”, the “compatibility with sodium chloride” value ([1]; sodium chloride at 30 mM) was “may be compatible” and the “compatibility with sodium chloride” value ([1]; sodium chloride at 60 mM or higher) was “incompatible”. The “compatibility with clear borosilicate glass vial” value [2] was “not compatible”, the “compatibility with PVDF membrane filter” value ([2]; 0.22 μm) was “not compatible” and the “stability by itself in 30 mM NaCl” value [3] was “not stable”. The “compatibility with NaCl” value ([4]; NaCl at 30 mM, in absence of pirfenidone, irrespective of container type and filtration material) was “incompatible”, the “suitability of clear borosilicate glass vial” value ([4]; even at 0.5 mg/mL nintedanib esylate) was “not suitable” and the “suitability of LDPE vial” value ([4]; nintedanib esylate and nintedanib esylate in 1.5% propylene glycol solutions) was “suitable”. The “adverse effect (dyspnea)” value ([5]; 2.5 mg/kg IT) was “not observed”, the “AUC 0-last” value ([5]; 2.5 mg/kg IT, Lung (whole lung homogenate)) was 67.8 mg·h/kg and the “adverse effect (dyspnea)” value ([5]; 10 mg/kg IT) was “caused dyspnea”. The “AUC 0-last” value ([5]; 10.0 mg/kg IT, Lung (whole lung homogenate)) was 167.8 mg·h/kg, the “AUC 0-last” value [5, 11] was 24.1 mg·h/kg and the Cmax [5, 12] was 57500 ng/g. For the same molecule, the half-life [5, 12] was 3.8 min, the AUC(0-t) [5, 13] was 200 ng·h/mL and the Cmax [5, 13] was 700 ng/mL. For the same molecule, the half-life [5, 13] was 2.3 min, the Cmax [5, 14] was 250000 ng/g and the half-life [5, 14] was 5.6 min. For the same molecule, the AUC(0-t) [5, 15] was 600 ng·h/mL, the Cmax [5, 15] was 2700 ng/mL and the half-life [5, 15] was 2.3 min. For the same molecule, the Cmax [5, 11] was 12100 ng/g, the AUC(0-t) ([5]; 100.0 mg/kg PO, Plasma) was 1800 ng·h/mL and the Cmax ([5]; 100.0 mg/kg PO, Plasma) was 600 ng/mL. The half-life ([5]; 100.0 mg/kg PO, Plasma) was 112 min, the “AUC 0-last” value ([6]; Lung (whole lung homogenate)) was 68.4 mg·h/kg and the Cmax [6, 16] was 171000 ng/g. The half-life [6, 16] was 1.8 min, the AUC(0-t) [6, 17] was 1000 ng·h/mL and the Cmax [6, 17] was 2800 ng/mL. The half-life [6, 17] was 7.7 min, the “Lung AUC” value [7, 18] was “about 20 mg·hr/kg” and the lung half-life [7, 18] was “about 3 minutes”. It also gave a half-life ([7]; female, lung (whole lung homogenate), inhaled or intranasal, lung (whole lung homogenate), 1.0 mg/kg IT, C57BL/6 mice) of 2.9 min, a half-life ([7]; female, plasma, inhaled or intranasal, plasma, 1.0 mg/kg IT, C57BL/6 mice) of 2 min and a Cmax ([7]; female, mouse, inhaled or intranasal, lung (whole lung homogenate), 1.0 mg/kg IT, C57BL/6 mice) of 34500 ng/g. The Cmax ([7]; female, mouse, inhaled or intranasal, plasma, 1.0 mg/kg IT (base equivalent), C57BL/6 mice) was 400 ng/mL, the AUC(0-t) ([7]; female, mouse, inhaled or intranasal, plasma, 1.0 mg/kg IT, C57BL/6 mice) was 200 ng·h/mL and the “AUC 0-last” value ([7]; lung (whole lung homogenate), 1.0 mg/kg IT, C57BL/6 mice) was 21.7 mg·h/kg. For the same molecule, the “Lung AUC” value [8] was 29.3 mg·h/kg, the “Lung Cmax” value [8] was 4.4 µg/g and the “Fibrosis Score (SD) (Ashcroft)” value [9] was 2.3 (0.45). For the same molecule, the “Fibrosis Score, Delta to Vehicle (%)” value [9] was 11.5% and the “Body Weight Gain, Delta to Sham (%)” value [10] was −46.9%.
